The source of these data is patent US7105566B2, “Methods of treatment during vascular procedures” (Allergan, Inc., priority 2002, dated 2006).

One experiment deals with female ZDF rats. Description: Serum triglycerides and cholesterol in female ZDF rats, Compound 1 and Compound 2 at 10 mg/kg. The class given is in vivo, rat. The following applies: 10 mg/kg oral. As to the method:
A similar experiment to that described above was performed. Briefly, female ZDF rats (12 weeks old) were fed either a PM 5008 diet or a GMI 13004 diet. Control vehicle consisted of 2% DMSO and 98% corn oil. Compound 1 and Compound 2 were administered at a dosage of 10 mg/kg body weight. Dosings were administered at approximately 8 a.m. Serum was collected on the first day of dosing at approximately 8 a.m. (Day 1, 0 hour) and 2 p.m. (Day 1, 6 hour); the fourth day of dosing at approximately 8 a.m. (Day 4, 0 hour); and the last day of dosing at approximately 8 a.m. (Day 7, 0 hour) and 2 p.m. (Day 7, 6 hour). The levels of triglycerides and cholesterol in the serum samples were measured. The results are shown in Table 2 and are illustrated graphically in FIGS. 3A and 3B.

Experiment [1] deals with male SJL mice. The experiment can be described thus: Hepatic triglyceride (HTG) output after WR-1339 injection in fasted male SJL mice. The class given is in vivo, mouse. The protocol:
(§1) On day 4, animals were fasted after dosing, starting at 8 a.m. Following 6 hours of fasting, blood samples were collected prior to intravenous injection of WR-1339 at 100 mg/5 ml/kg. Additional serum samples were collected at 1 and 2 hours after WR-1339 injection. WR-1339 is a detergent that inactivates lipoprotein lipase and thus prevents the removal of triglycerides from circulation. By measuring the increase of STG after WR-1339 administration in fasted animals, the hepatic triglyceride (HTG) output during fasting can be estimated.
(§2) Due to the lack of effect of Compound 3 at 20 mg/kg, the dose was increased to 100 mg/kg in the same set of mice. STG was determined on day 3 prior to dosing (Day 3, 8 a.m.). […] To ensure that Compound 3 would be bioavailable, Compound 3 was dissolved in DMSO and given by intraperitoneal injections, once at 4 p.m. on day 3 and once at 8 a.m. on day 4, at a dosage of 100 mg/kg/injection. Administration of WR-1339 and blood collections on day 4 were similarly conducted as described above.

Experiment [2] deals with male SJL mice. The experiment can be described thus: Serum triglycerides (STG) in male SJL mice. Format: in vivo, mouse. As to the method:
Male SJL mice were dosed orally with vehicle, Compound 1 (an RAR pan-antagonist), or Compound 3 (an RARE antagonist) for 4 consecutive days. The structure and synthesis of Compound 1 is described in Example I. The structure of Compound 3 is shown below, and the compound was synthesized using routine methods:
The test compounds were dissolved in corn oil and given at a dosage/volume of 20 mg/5 ml/kg.
On day 3, serum triglycerides (STG) were determined from samples collected at 7 a.m.
as §1, §2

The subject of experiment [3] is chronic hypertriglyceridemic patients. The following applies: de Man et al. 2000; cited from earlier work.
The mark [4] stands for this setting: GMI 13004 diet, group mean of 5 rats, first day of dosing, 2 p.m.
Setting [5] is: GMI 13004 diet, group mean of 5 rats, first day of dosing, about 8 a.m. (baseline).
[6] abbreviates: GMI 13004 diet, group mean of 5 rats, fourth day of dosing, 8 a.m.
The mark [7] stands for this setting: GMI 13004 diet, group mean of 5 rats, last day of dosing, 2 p.m.
The mark [8] stands for this setting: GMI 13004 diet, group mean of 5 rats, last day of dosing, 8 a.m.
Where [9] appears, read: GMI 13004 diet, individual animals, first day of dosing, 2 p.m.
Where [10] appears, read: GMI 13004 diet, individual animals, first day of dosing, about 8 a.m. (baseline).
[11] abbreviates: GMI 13004 diet, individual animals, fourth day of dosing, 8 a.m.
The mark [12] stands for this setting: GMI 13004 diet, individual animals, last day of dosing, 2 p.m.
The mark [13] stands for this setting: GMI 13004 diet, individual animals, last day of dosing, 8 a.m.

The structures appear in SMILES notation. Several values for one entry are separate records, joined by “and”; a condition that tells them apart may be missing. Equal entries are not always repeated.

Turning to `Cc1ccc(C2=CC(C)(C)Oc3c(Br)cc(C(=O)Nc4ccc(C(=O)O)c(F)c4)cc32)cc1` [Compound 2], in the experiment on female ZDF rats, the “effect on lowering serum cholesterol” value is listed as “more modest effect” and the “serum triglycerides as % of pre-treatment levels” value is recorded as “about 40%”. In the experiment on female ZDF rats (setting [4]), the “Cholesterol day 1, 6 hr, Mean” value turned out to be 106 and the “Triglycerides day 1, 6 hr, Mean” value is given as 1321. Also, in the experiment on female ZDF rats (setting [5]), the “Cholesterol day 1, 0 hr, Mean” value was determined as 119 and the “Triglycerides day 1, 0 hr, Mean” value is on record as 1471. Moreover, in the experiment on female ZDF rats (setting [6]), the “Cholesterol day 4, 0 hr, Mean” value is given as 77 and the “Triglycerides day 4, 0 hr, Mean” value is reported as 571. In the experiment on female ZDF rats (setting [7]), the “Cholesterol day 7, 6 hr, Mean” value is on record as 62 and the “Triglycerides day 7, 6 hr, Mean” value is 602. In the experiment with female ZDF rats (setting [8]), the “Cholesterol day 7, 0 hr, Mean” value worked out at 66 and the “Triglycerides day 7, 0 hr, Mean” value is on record as 560. Moreover, in the experiment on female ZDF rats (setting [9]), the “Cholesterol day 1, 6 hr” value is 114 and 84 and 90 and 108 and 132; the “Triglycerides day 1, 6 hr” value was 1260 and 1338 and 1140 and 1344 and 1524. Besides, in the experiment with female ZDF rats (setting [10]), the “Cholesterol day 1, 0 hr” value was 120 (2×) and 96 (2×) and 162; the “Triglycerides day 1, 0 hr” value is 1464 and 1194 and 1284 and 1668 and 1746. For the same molecule, in the experiment with female ZDF rats (setting [11]), the “Cholesterol day 4, 0 hr” value is 84 and 66 and 72 (2×) and 90; the “Triglycerides day 4, 0 hr” value is 642 and 804 and 210 and 630 and 570. Moreover, in the experiment on female ZDF rats (setting [12]), the “Cholesterol day 7, 6 hr” value is 72 and 60 (2×) and 54 and 66; the “Triglycerides day 7, 6 hr” value was 402 and 600 and 360 and 738 and 912. In the experiment with female ZDF rats (setting [13]), the “Cholesterol day 7, 0 hr” value is 78 (2×) and 60 (2×) and 54; the “Triglycerides day 7, 0 hr” value is 294 and 588 and 474 and 726 and 720.

`Cc1ccc(C2=CCC(C)(C)c3cc(O)c(C(=O)Nc4ccc(C(=O)O)c(F)c4)cc32)cc1` [Compound 3]: in the experiment with male SJL mice [1] (20 mg/kg oral daily for 4 days, fasted), the “HTG output after WR-1339 injection” value was “not observed”. The HTG output entry in the experiment with male SJL mice [1] (100 mg/kg/injection intraperitoneal, WR-1339, fasted) is recorded as “reduced”. Besides, the “non-fasting STG (Day 3, 8 a.m.)” value with male SJL mice [2] (20 mg/kg oral daily) is listed as “not observed”. Besides, the “STG 16 hours after a single intraperitoneal dose (Day 4, 8 a.m.)” value in the experiment on male SJL mice [2] (100 mg/kg intraperitoneal in DMSO) is given as “clear lowering of STG”. In addition, in the experiment with male SJL mice [2] (100 mg/kg oral), the “STG on day 3 prior to dosing (Day 3, 8 a.m.)” value is listed as “no lowering of STG was observed”. The “STG after fasting (Day 4, 2 p.m.)” value in the experiment on male SJL mice [2] (100 mg/kg/injection intraperitoneal) is “effect disappeared after fasting”.

Take `CC(C)c1c(C(=O)Nc2ccccc2)c(-c2ccccc2)c(-c2ccc(F)cc2)n1CC[C@@H](O)C[C@@H](O)CC(=O)O` [atorvastatin]: the “effect on impaired vasodilation” value in experiment [3] was “reverse the impaired vasodilation”.
